Test results from ChEMBL document CHEMBL3886958, “Substituted B-amino acid derivatives as CXCR3 receptor antagonists” (2016).

Target: T1, C-X-C chemokine receptor type 3 (Homo sapiens, UniProt P49682)
T1 sequence (P49682 whole entry): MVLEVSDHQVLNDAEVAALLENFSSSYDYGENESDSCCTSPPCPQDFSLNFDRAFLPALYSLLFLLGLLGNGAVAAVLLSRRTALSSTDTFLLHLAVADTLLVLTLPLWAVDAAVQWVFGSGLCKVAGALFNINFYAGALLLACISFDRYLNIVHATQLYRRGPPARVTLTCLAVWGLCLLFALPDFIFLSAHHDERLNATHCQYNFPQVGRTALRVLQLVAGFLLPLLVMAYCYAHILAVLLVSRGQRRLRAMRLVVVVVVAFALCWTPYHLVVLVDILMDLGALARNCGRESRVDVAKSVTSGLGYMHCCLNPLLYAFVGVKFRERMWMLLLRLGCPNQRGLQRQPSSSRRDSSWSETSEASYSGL

IC50 [nM] | SMILES
81 | CCCN(Cc1ccc(OCCN2C(=O)CCC2=O)c(CC)c1)C(CC(=O)O)c1ccc(Cl)c(Cl)c1 (centres undefined)
467 | COc1cc(CN(CC2CCCC2)C(C(=O)O)c2ccc(Cl)cc2)ccc1OCCN1C(=O)CCC1=O (centres undefined)
295 | CCN(Cc1ccc(OCCN2C(=O)CCC2=O)c(OC)c1)C(c1ccc(Cl)cc1)C(C)(C)C(=O)O (centres undefined)
179 | COc1cc(CN(CC2CCCC2)C(CC(=O)O)c2ccc(Cl)cc2)ccc1CCCN1C(=O)CCC1=O (centres undefined)
686 | CCOC(=O)CC(c1ccc2c(c1)CCO2)N(Cc1ccc(OCCN2C(=O)CCC2=O)c(OC)c1)CC(C)C (centres undefined)
187 | COc1cc(CN(CC2CCCCC2)[C@@H](CC(=O)O)c2ccc(Cl)c(Cl)c2)ccc1OCCN1C(=O)CN(C)C1=O
40 | COc1cc(CN(CC2CC2)C(CC(=O)O)c2ccc(Cl)c(F)c2)ccc1SCCN1C(=O)CCC1=O (centres undefined)
495 | CCCN(Cc1ccc(OCCN2C(=O)CCC2=O)c(OC)c1)[C@H](C(=O)O)c1ccc(Cl)c(Cl)c1
435 | O=C(O)CC(c1ccc(Cl)c(Cl)c1)N(Cc1ccc(OCCN2C(=O)CCC2=O)c(F)c1)CC1CCCCC1 (centres undefined)
